Experimental data from patent US5393742A, “Preparation for treating renal disease” (MECT Corporation, priority 1990, dated 1995).

System: Male ddy mice
Test: Simplified acute toxicity test of N-acetylneuraminates in mice by intravenous injection
Type: in vivo
Protocol: Simplified acute toxicity test:
A simplified acute toxicity test of N-acetylneuraminates in mice by intravenous injection was carried out as follows.
Lithium-, potassium-, barium- and magnesium- salts of N-acetylneuraminic acid were used (all were from MECT Corporation).
Body weights at the start of the test: 17.7-21.1 g
The number of animals at each level: 3 mice
(3) Room temperature: 23±1° C. - Humidity: 55±7%
The above-mentioned test compounds were dissolved in physiological saline solution to make a 0.2 ml solution per 20 g of body weight in a mouse as an injection fluid and injected into the tail vein. The doses were 500, 1,000 and 2,000 mg/kg.

Row | SMILES | The number of deaths per day course (500 mg/kg i.v., 1 hrs) | The number of deaths per day course (500 mg/kg i.v., 3 hrs) | The number of deaths per day course (500 mg/kg i.v., 6 hrs) | The number of deaths per day course (500 mg/kg i.v., 24 hrs) | The number of deaths per day course (500 mg/kg i.v., 2 days) | The number of deaths per day course (500 mg/kg i.v., 3 days) | The number of deaths per day course (500 mg/kg i.v., 4 days) | The number of deaths per day course (500 mg/kg i.v., 5 days) | The number of deaths per day course (500 mg/kg i.v., 6 days) | Final Lethality (500 mg/kg i.v., 7 days) | The number of deaths per day course (500 mg/kg i.v., 7 days) | Final Lethality (1000 mg/kg i.v., 7 days) | Final Lethality (2000 mg/kg i.v., 7 days) | Deaths (in words) (1,000 and 2,000 mg/kg i.v.) | The number of deaths per day course (1000 mg/kg i.v., 7 days) | The number of deaths per day course (1000 mg/kg i.v., 1 hrs) | The number of deaths per day course (1000 mg/kg i.v., 3 hrs) | The number of deaths per day course (1000 mg/kg i.v., 6 hrs) | The number of deaths per day course (1000 mg/kg i.v., 24 hrs) | The number of deaths per day course (1000 mg/kg i.v., 2 days) | further results
1 | CC(=O)N[C@H]1[C@H]([C@H](O)[C@H](O)CO)OC(O)(C(=O)O)C[C@@H]1O (some centres unmarked) [Magnesium N-acetylneuraminate] | 0 | 0 | 0 | 0 | 0 | 0 | 0 | 0 | 0 | 0/3 | 0 | 3/3 | 3/3 | all of the 3 mice died | – | – | – | – | – | – | –
2 | CC(=O)N[C@H]1[C@H]([C@H](O)[C@H](O)CO)OC(O)(C(=O)[O-])C[C@@H]1O.[K+] (some centres unmarked) [Potassium N-acetylneuraminate] | 0 | 0 | 0 | 0 | 0 | 0 | 0 | 0 | 0 | 0/3 | 0 | 3/3 | 3/3 | all of the 3 mice died | 0 | 3 | 0 | 0 | 0 | 0 | The number of deaths per day course (1000 mg/kg i.v., 3 days): 0; The number of deaths per day course (1000 mg/kg i.v., 4 days): 0; The number of deaths per day course (1000 mg/kg i.v., 5 days): 0; The number of deaths per day course (1000 mg/kg i.v., 6 days): 0; The number of deaths per day course (2000 mg/kg i.v., 7 days): 0; The number of deaths per day course (2000 mg/kg i.v., 1 hrs): 3; The number of deaths per day course (2000 mg/kg i.v., 3 hrs): 0; The number of deaths per day course (2000 mg/kg i.v., 6 hrs): 0; The number of deaths per day course (2000 mg/kg i.v., 24 hrs): 0; The number of deaths per day course (2000 mg/kg i.v., 2 days): 0; The number of deaths per day course (2000 mg/kg i.v., 3 days): 0; The number of deaths per day course (2000 mg/kg i.v., 4 days): 0; The number of deaths per day course (2000 mg/kg i.v., 5 days): 0; The number of deaths per day course (2000 mg/kg i.v., 6 days): 0
3 | CC(=O)N[C@H]1[C@H]([C@H](O)[C@H](O)CO)OC(O)(C(=O)O)C[C@@H]1O (some centres unmarked) [Barium N-acetylneuraminate] | 3 | 0 | 0 | 0 | 0 | 0 | 0 | 0 | 0 | 3/3 | 0 | 3/3 | 3/3 | all of the 3 mice died | 0 | 3 | 0 | 0 | 0 | 0 | Deaths (in words) (500 mg/kg i.v.): all 3 of the 3 mice; The number of deaths per day course (1000 mg/kg i.v., 3 days): 0; The number of deaths per day course (1000 mg/kg i.v., 4 days): 0; The number of deaths per day course (1000 mg/kg i.v., 5 days): 0; The number of deaths per day course (1000 mg/kg i.v., 6 days): 0; The number of deaths per day course (2000 mg/kg i.v., 7 days): 0; The number of deaths per day course (2000 mg/kg i.v., 1 hrs): 3; The number of deaths per day course (2000 mg/kg i.v., 3 hrs): 0; The number of deaths per day course (2000 mg/kg i.v., 6 hrs): 0; The number of deaths per day course (2000 mg/kg i.v., 24 hrs): 0; The number of deaths per day course (2000 mg/kg i.v., 2 days): 0; The number of deaths per day course (2000 mg/kg i.v., 3 days): 0; The number of deaths per day course (2000 mg/kg i.v., 4 days): 0; The number of deaths per day course (2000 mg/kg i.v., 5 days): 0; The number of deaths per day course (2000 mg/kg i.v., 6 days): 0
4 | CC(=O)N[C@H]1[C@H]([C@H](O)[C@H](O)CO)OC(O)(C(=O)[O-])C[C@@H]1O.[Li+] (some centres unmarked) [Lithium N-acetylneuraminate] | 0 | 0 | 0 | 0 | 0 | 0 | 0 | 0 | 0 | 0/3 | 0 | 0/3 | 0/3 | – | 0 | 0 | 0 | 0 | 0 | 0 | The number of deaths per day course (1000 mg/kg i.v., 3 days): 0; The number of deaths per day course (1000 mg/kg i.v., 4 days): 0; The number of deaths per day course (1000 mg/kg i.v., 5 days): 0; The number of deaths per day course (1000 mg/kg i.v., 6 days): 0; The number of deaths per day course (2000 mg/kg i.v., 7 days): 0; The number of deaths per day course (2000 mg/kg i.v., 1 hrs): 0; The number of deaths per day course (2000 mg/kg i.v., 3 hrs): 0; The number of deaths per day course (2000 mg/kg i.v., 6 hrs): 0; The number of deaths per day course (2000 mg/kg i.v., 24 hrs): 0; The number of deaths per day course (2000 mg/kg i.v., 2 days): 0; The number of deaths per day course (2000 mg/kg i.v., 3 days): 0; The number of deaths per day course (2000 mg/kg i.v., 4 days): 0; The number of deaths per day course (2000 mg/kg i.v., 5 days): 0; The number of deaths per day course (2000 mg/kg i.v., 6 days): 0
